# From the OligoGym collection
# Values joined by “and” are separate entries in the source; they are usually repeats but may differ in a detail not shown here. Equal entries are not always repeated. After the bases stand the sugars from the 5' end (letter, count) and the backbone: PS all phosphorothioate, else s phosphorothioate and o phosphodiester by linkage. Methylation of C is not given here. e = 2'-O-(2-methoxyethyl) (MOE); k = constrained ethyl (cEt); d = 2'-deoxy (DNA)
# Target: IRF4
# Conditions: ASO
Sequence,"target mRNA inhibition (SK-MEL-28, 4 µM) [%]","target mRNA inhibition (MM.1R, 1 µM)",further results
"AAGTCATTGCTCTTGT (sugars k4 d8 k4, PS)",28,–,–
"GATCATCAATGATGGC (sugars k3 d10 k3, PS)",63,–,–
"TAATCCACAATCAGCA (sugars k3 d10 k3, PS)",–,-27%,–
"TGGCACGAGGAAGCAT (sugars k3 d10 k3, PS)",46,–,–
"AGGAATGAGCACTCTT (sugars k3 d10 k3, PS)",–,7%,–
"ACTGAGTACAAACTAA (sugars k3 d10 k3, PS)",32,–,–
"AAGCAGTGATGTCAGG (sugars kkdddddddddkdkdk, PS)",–,60% and 61%,–
"ACACTTTTAGAGAGGA (sugars kkdddddddddekeke, PS)",–,41%,–
"CCTCAGTTTGTGAAGC (sugars kkddddddddddkeke, PS)",–,16%,–
"GAGCACCAGCCATCGG (sugars k3 d10 k3, PS)",23,–,–
"TTAGCCAATTCCTCCA (sugars k3 d10 k3, PS)",–,36% and 47%,–
"AAAGACCCCAGCTATG (sugars k3 d10 k3, PS)",23,–,–
"TCAAGTAAAGTGATCA (sugars k3 d10 k3, PS)",48,–,–
"TAGTATGAGAAACGGC (sugars kkddddddddddkeke, PS)",–,46%,–
"CGTCTTCCAGGTGGGA (sugars k3 d10 k3, PS)",16,–,–
"CCTACAAAATGCCTCC (sugars k3 d10 k3, PS)",47,–,–
"CTAGGTTTCAGTTGTA (sugars k3 d10 k3, PS)",54,–,–
"GAACGGAAGTTTACAC (sugars k3 d10 k3, PS)",67,–,–

Sequence,"target mRNA inhibition (SK-MEL-28, 4 µM) [%]","target mRNA inhibition (MM.1R, 1 µM)",further results
"AAGCTTGATAAAGGCT (sugars kdddddddddkekeke, PS)",–,2%,–
"AAGCTTGATAAAGGCT (sugars k2 d9 e3 k2, PS)",–,53%,–
"ACGCAATGGCAAAAGA (sugars k3 d10 k3, PS)",11,–,–
"GCCCGGCCGGGCCTTC (sugars k3 d10 k3, PS)",–,-4%,–
"GTTGGCTGGTCTTTGT (sugars kkdddddddddekeke, PS)",–,23%,–
"TTACTGTTACCGATGC (sugars k3 d10 k3, PS)",–,26% and 35%,–
"AAGGAGGTAGTGGCCC (sugars k3 d10 k3, PS)",47,–,–
"CCGCTCAACCAGTTCC (sugars k3 d10 k3, PS)",–,-12%,–
"CACCACTATTCGAGAG (sugars k3 d10 k3, PS)",48,–,–
"CCTACAAGCAGTCATC (sugars k3 d10 k3, PS)",54,–,–
"GATAGGTATACTTAAG (sugars k3 d10 k3, PS)",51,–,–
"AGTTGTAAATGAGTCG (sugars kkdddddddddkekek, PS)",–,56%,"target mRNA inhibition (MM.1R, 0.074 µM): 10%; target mRNA inhibition (MM.1R, 0.222 µM): 31%; target mRNA inhibition (MM.1R, 0.666 µM): 47%; target mRNA inhibition (MM.1R, 2 µM): 66%"
"CGCTGAATTGTCATGA (sugars k3 d10 k3, PS)",–,-1%,–
"GCAGTTCTTAATATCA (sugars k3 d10 k3, PS)",60,–,–
"ACCTGGCAACCATTTT (sugars k3 d10 k3, PS)",4,–,–
"ACGGGAATTTCCATTG (sugars k3 d10 k3, PS)",67,–,"target mRNA inhibition (SK-MEL-28, 0.185 µM): 11% and 5% and 1%; target mRNA inhibition (SK-MEL-28, 5 µM): 57% and 61% and 82%; target mRNA inhibition (SK-MEL-28, 15 µM): 83% and 79% and 94%"
"GATGAGGGACCAGAAC (sugars k3 d10 k3, PS)",20,–,–
"GTAGTATGAGAAACGG (sugars k3 d9 k3 e1, PS)",–,40%,–
